These results are taken from BindingDB's records for doi:10.1021/jm00117a011 (University of Kansas, 1988).

In assay [1] the target is Adenosylhomocysteinase (Bos taurus). Briefly: Evaluated for the 50% inhibition of bovine-liver S-Adenosyl-homocysteine (AdoHcy) hydrolase.
Assay [2] shares this target. Described as above. The source holds these as a separate data set.

For the molecule `Nc1nccc2c1ncn2CC=C(CO)CO` [2-[2-(4-Amino-imidazo[4,5-c]pyridin-1-yl)-ethylidene]-propane-1,3-diol], the affinity in assay [1], expressed as Ki, was 166 nM. This counts as sub-micromolar.

`Nc1nccc2c1ncn2C/C=C\CO` [4-(4-Amino-imidazo[4,5-c]pyridin-1-yl)-but-2-en-1-ol] showed a Ki in assay [1] of 200 nM.

The molecule `Nc1ncnc2c1ncn2CC#CCO` displayed an IC50 in assay [2] of 1000 nM.

Take `Nc1nccc2c1ncn2C/C=C/CO` [4-(4-Amino-imidazo[4,5-c]pyridin-1-yl)-but-2-en-1-ol]: half-maximal inhibition in assay [2] (IC50) was put at 1230 nM. This IC50 and that of the molecule before are within 1.5-fold of each other.

Molecule `Nc1ncnc2c1ncn2C/C=C/CO` came in with a Ki in assay [1] of 330 nM.

Regarding `Nc1ncnc2c1ncn2C/C=C\CO`, in assay [1], the affinity, expressed as Ki, was 125 nM.

The molecule `Nc1ncnc2c1ncn2C/C=C(\CO)[C@@H](O)CO` returned a Ki in assay [1] greater than 1000 nM.

In assay [2], `Nc1ncnc2c1ncn2C/C=C/C(O)CO` (stereo not given) [5-(6-Amino-purin-9-yl)-pent-3-ene-1,2-diol] displayed an IC50 of 950 nM.

Molecule `C/C(=C\Cn1cnc2c(N)ncnc21)CO` [4-(6-Amino-purin-9-yl)-2-methyl-but-2-en-1-ol] registered a Ki in assay [1] of 500 nM.

On to `Nc1ncnc2c1ncn2CC=C(CO)CO` [2-[2-(6-Amino-purin-9-yl)-ethylidene]-propane-1,3-diol], for which the Ki in assay [1] is 110 nM.

In turn, `Nc1ncnc2c1ncn2C/C=C\[C@@H](O)CO` [5-(6-Amino-purin-9-yl)-pent-3-ene-1,2-diol] gave a Ki in assay [1] of 200 nM.

Take `Nc1nccc2c1ncn2CC#CCO` [4-(4-Amino-imidazo[4,5-c]pyridin-1-yl)-but-2-yn-1-ol]: the Ki in assay [1] worked out at 160 nM. This Ki and that of the molecule before are within 1.5-fold of each other.

`Nc1nccc2c1ncn2C/C=C\[C@@H](O)CO` [5-(4-Amino-imidazo[4,5-c]pyridin-1-yl)-pent-3-ene-1,2-diol] had a Ki in assay [1] of 90 nM. This Ki is about 1.8-fold lower than that of the molecule before.

Turning to `CC(C)=CCn1cnc2c(N)ncnc21` [9-(3-Methyl-but-2-enyl)-9H-purin-6-ylamine], 930 nM corresponded to half-maximal inhibition in assay [2] (IC50).

For `C/C(=C/Cn1cnc2c(N)ncnc21)CO` [4-(6-Amino-purin-9-yl)-2-methyl-but-2-en-1-ol], the inhibition constant (Ki) in assay [1] was 170 nM.

Broadly, the Ki is a measure of affinity in units of concentration, obtained from inhibition or displacement. Broadly, the IC50 is the concentration that inhibits the measured activity by half. Low values mean greater potency, high ones weaker potency.
